Laboratory results: PubChem BioAssay AID1648 (Sanford-Burnham Center for Chemical Genomics, 2009)
Active and inactive are the calls of the source. The rule behind the calls is not given here.

What follows are compounds tested against Serine/threonine-protein kinase mTOR (Homo sapiens) (UniProt P42345) (assay: mTOR FRB domain ligand binding – biophysical, NMR (AID 1648)). Settings: NMR binding to FRB domain, chemical shift.
Sequence of Serine/threonine-protein kinase mTOR (Homo sapiens) (P42345 2015-2114): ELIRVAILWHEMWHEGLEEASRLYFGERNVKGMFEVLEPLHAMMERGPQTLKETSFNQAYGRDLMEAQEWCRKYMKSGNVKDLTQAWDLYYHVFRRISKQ

Compound | Kd
NCc1ccc(S(N)(=O)=O)cc1 | > 4 mM (inactive)
O=C(O)c1sccc1-n1cccc1 | > 4 mM (inactive)
CN1CCN(c2ccc(N)cc2)CC1 | > 4 mM (inactive)
N#Cc1cc(-c2ccccc2)oc1N | > 4 mM (inactive)
O=C(O)CC[N+](=O)[O-] | > 4 mM (inactive)
CC(=O)Nc1ccc(NC(=O)C2CC2)cc1 | > 4 mM (inactive)
COc1ccccc1NC(=O)c1cc[n+]([O-])cc1 | > 4 mM (inactive)
CCCSc1nnc2[nH]c(=O)cc(N)n12 | > 4 mM (inactive)
CC(C)(C)c1cc(NC(=O)c2cccnc2)no1 | > 4 mM (inactive)
COc1cc2c3cc1Oc1cc(ccc1O)C[C@@H]1c4c(cc(OC)c(O)c4Oc4ccc(cc4)C[C@@H]3N(C)CC2)CC[N+]1(C)C | > 4 mM (inactive)
O=C(c1ccccc1)N1CCOCC1 | > 4 mM (inactive)
Cc1nnc(N2CCN(Cc3ccccc3)CC2)[nH]c1=O | > 4 mM (inactive)
CN1CCN(C(=S)NC(=O)c2ccn(C)n2)CC1 | > 4 mM (inactive)
CN1CCN(CC(=O)NC2CCCCC2)CC1 | > 4 mM (inactive)
COC(=O)C[C@H]1C2(C)CC34OC5(C)O[C@@]6([C@H](OC(C)=O)C(OC(C)=O)[C@]7(C)C(/C(=C(/O)C(C)C)C(=O)O[C@H]7c7ccoc7)[C@@]6(O5)[C@H](OC(C)=O)[C@@]3(O)C2OC(=O)C(C)C)[C@]14C (stereo partly drawn) | > 4 mM (inactive)
CC(=O)OCC(=O)[C@@]1(O)CCC2C3CC[C@@H]4C[C@H](O)CC[C@]4(C)C3C(=O)C[C@@]21C (stereo partly drawn) | > 4 mM (inactive)
CN1C(CC(=O)c2ccccc2)CCCC1CC(O)c1ccccc1 (stereo not drawn) | > 4 mM (inactive)
Cc1nc2ccc(C(=O)O)cc2nc1C | > 4 mM (inactive)
Cc1cc(NC(=O)c2ccc3c(c2)OCCO3)no1 | > 4 mM (inactive)
CC(=O)NC1=C(N(C)C)C(=O)c2ccccc2C1=O | > 4 mM (inactive)
O=c1[nH]nc(Cc2ccncc2)c2ccccc12 | > 4 mM (inactive)
Cc1nc(-c2ccccc2)sc1C(N)=O | > 4 mM (inactive)
CC(=O)N=c1cccc(NC(C)=O)n1O | > 4 mM (inactive)

Compound | Kd
Cn1ncc(N2CCOCC2)c(Cl)c1=O | > 4 mM (inactive)
OC[C@H]1O[C@@](CO)(O[C@@H]2O[C@H](CO)[C@@H](O)[C@H](O)[C@H]2O)[C@@H](O[C@@H]2O[C@H](CO)[C@@H](O)[C@H](O)[C@H]2O)[C@@H]1O | > 4 mM (inactive)
Nc1nnc(SCc2ccc(F)cc2Cl)s1 | > 4 mM (inactive)
CCc1nnc(NC(C)=O)s1 | > 4 mM (inactive)
Cc1ccc(-c2nn(C)c(=O)c3ccccc23)cc1CO | > 4 mM (inactive)
COC1=CC(C)[C@@H]2C[C@H]3OC(=O)C[C@H]4C(C)=C(OC)C(=O)C([C@@]34C)[C@@]2(C)C1=O (stereo partly drawn) | > 4 mM (inactive)
COc1ccc(Cl)c(S(=O)(=O)N2CCCC2)c1 | > 4 mM (inactive)
Nc1cc(=O)[nH]c(=O)n1-c1ccccc1 | > 4 mM (inactive)
COc1ccc2nc(SCC(N)=O)[nH]c2c1 | > 4 mM (inactive)
CCOC(=O)C1CCNCC1 | > 4 mM (inactive)
O=C(Nc1ccccn1)c1cc(-n2cnnc2)ccc1Cl | > 4 mM (inactive)
O=C(c1cccc(-n2cnnn2)c1)N1CCOCC1 | > 4 mM (inactive)
COc1ccc([C@H]2COc3c(ccc(O)c3OC)C2)c(OC)c1O | > 4 mM (inactive)
COc1ccc2c(=O)c(OC)c(-c3ccccc3)oc2c1 | > 4 mM (inactive)
CCC(C)C(NC)C(=O)O (stereo not drawn) | > 4 mM (inactive)
CC1(C)NC(=O)N(CN2CCOCC2)C1=O | > 4 mM (inactive)
COc1ccc(-c2cc(=O)c3c(O)cc(O[C@H]4O[C@H](CO[C@@H]5O[C@@H](C)[C@H](O)[C@@H](O)[C@H]5O)[C@@H](O)[C@H](O)[C@H]4O)cc3o2)cc1 | > 4 mM (inactive)
CC(=O)c1cc(CN2C(=O)c3ccccc3C2=O)cs1 | > 4 mM (inactive)
Nc1ccc(C2SCCS2)cc1 | > 4 mM (inactive)
CCOc1ccc(C(=O)c2ccc(O)c(O)c2O)cc1 | > 4 mM (inactive)
O=C(Nc1ccc(-c2nnco2)cc1)c1ccccc1 | > 4 mM (inactive)
O=C(O)c1ccc2ncccc2c1 | > 4 mM (inactive)
Cc1cc(=O)oc2c1c(C)nn2CN1CCN(C)CC1 | > 4 mM (inactive)

Compound | Kd
O=C(O)c1scc2c1CCCC2 | > 4 mM (inactive)
Cc1ccc2c(C)c(C(=O)Nc3nnc(C)s3)oc2c1 | > 4 mM (inactive)
CC(C)=CCc1c(O)cc2oc(C)cc(=O)c2c1O | > 4 mM (inactive)
CC1(C)C=CC(=O)[C@@]2(C)C1CC(=O)[C@]1(C)C2CC[C@@]2(C)[C@H](c3ccoc3)OC(=O)C3OC321 (stereo partly drawn) | > 4 mM (inactive)
CCN=Cc1c(O)n(-c2ccccc2C)c(=O)[nH]c1=O | > 4 mM (inactive)
CC1(C)Cc2nc(N3CCOCC3)c(C#N)cc2CO1 | > 4 mM (inactive)
Cc1cccn2cc(CNc3ccccc3)nc12 | > 4 mM (inactive)
NC(=O)CN=Cc1c(O)[nH]c2ccccc12 | > 4 mM (inactive)
Cc1nc2ccccc2c2c1C(=O)N(N)C2=O | > 4 mM (inactive)
NC(=O)CN1CC(c2ccccc2)CC1=O (stereo not drawn) | > 4 mM (inactive)
COc1ccc(C(=O)NCC(=O)O)cc1 | > 4 mM (inactive)
Cn1c(=O)n(CC(=O)Nc2cccnc2)c2ccccc21 | > 4 mM (inactive)
c1cc(CNc2ccc3c(c2)OCCO3)ccn1 | > 4 mM (inactive)
Clc1ccccc1OCc1nc(-c2ccccn2)no1 | > 4 mM (inactive)
O=C(O)c1cc(O)c2c(c1)C(=O)c1cc(O)cc(O)c1C2=O | > 4 mM (inactive)
C/C=C/C(=O)Nc1ccc(NC(C)=O)cc1 | > 4 mM (inactive)
Cc1nnc2ccc(N3CCCC3)nn12 | > 4 mM (inactive)
Fc1ccc(CN2CCCNCC2)cc1 | > 4 mM (inactive)
c1ccc2nc3c(nc2c1)CCc1nonc1-3 | > 4 mM (inactive)
O=C1NC(=S)NC(=O)C1=Cc1ccco1 | > 4 mM (inactive)
NC(=O)C1CCN(Cc2ccccc2)CC1 | > 4 mM (inactive)
O=C1CNc2cc(C(=O)O)ccc2N1 | > 4 mM (inactive)
CC(C)CCCC(C)[C@H]1CCC2C3CC=C4C[C@@H](O)CC[C@]4(C)C3CC[C@@]21C (stereo partly drawn) | > 4 mM (inactive)

Compound | Kd
C=C1C(=O)O[C@@H]2C[C@@]3(C)CCC[C@H](C)C3=C[C@H]12 | > 4 mM (inactive)
O=C(O)CC1C(=O)NCCN1Cc1ccccc1 (stereo not drawn) | > 4 mM (inactive)
CN1CCC(=NNC(=O)c2ccco2)CC1 | > 4 mM (inactive)
CN(C(=O)NC1CCS(=O)(=O)C1)C1CCCCC1 (stereo not drawn) | > 4 mM (inactive)
COC(=O)CCC(C)C1CCC2C3CCC4C[C@H](O)CC[C@]4(C)C3C[C@H](O)[C@]12C (stereo partly drawn) | > 4 mM (inactive)
NC(c1ccccc1)c1ccccn1 (stereo not drawn) | > 4 mM (inactive)
CCN1CCC(=NO)CC1 | > 4 mM (inactive)
O=[n+]1cc(-c2ccccc2)n([O-])c2c1CCC2 | > 4 mM (inactive)
NC(=O)c1cn(-c2ccccc2)nc1-c1cccnc1 | > 4 mM (inactive)
COc1ccc(C2CC(=O)NN2)cc1OC1CCCC1 (stereo not drawn) | > 4 mM (inactive)
C=C1C2CC[C@@]3(C)[C@H](c4ccoc4)OC(=O)C[C@]13O[C@H]1CC(=O)C(C)(C)[C@H](C(OC(C)=O)C(=O)OC)[C@@]21C (stereo partly drawn) | > 4 mM (inactive)
NNC(=O)c1ccccc1-n1cccc1 | > 4 mM (inactive)
Cc1nc2ccccc2c(=O)[nH]1 | > 4 mM (inactive)
COc1cc2c(cc1OC)-c1cc3ccc(OC)c(OC)c3c[n+]1CC2 | > 4 mM (inactive)
COc1ccccc1NC(=O)/C=N/O | > 4 mM (inactive)
O=C(O)[C@H](O)[C@@](O)(Cc1ccc(O)cc1)C(=O)O | > 4 mM (inactive)
CSc1nc(NC(C)C)nc(N2CCOCC2)n1 | > 4 mM (inactive)
COc1ccc(CN2CCNC(=O)C2CC(=O)O)cc1C (stereo not drawn) | > 4 mM (inactive)
C/C=C/c1ccc2c(c1)OCO2 | > 4 mM (inactive)
Clc1ccc(-c2noc(CN3CCCC3)n2)cc1 | > 4 mM (inactive)
O=S(=O)(NCc1ccco1)c1cccc2cccnc12 | > 4 mM (inactive)
NC(=O)Cn1nc(-c2ccco2)ccc1=O | > 4 mM (inactive)
O=C(O)Cc1n[nH]c(=O)c2ccccc12 | > 4 mM (inactive)

Compound | Kd
CC(=O)O[C@H]1CC[C@]2(C)C3CC[C@@]4(C)C(CC5O[C@@]6(CCC(C)CO6)[C@@H](C)C54)C3CC[C@@H]2C1 (stereo partly drawn) | > 4 mM (inactive)
Cc1ccc(/C=N/n2c(C)nnc2C)cc1 | > 4 mM (inactive)
O=C(c1cc(-c2ccccc2)on1)N1CCCC1 | > 4 mM (inactive)
CN1CCn2c1nc(N1CCCCC1)nc2=O | > 4 mM (inactive)
Nc1cc(=O)[nH]c(=S)n1-c1cccc(C(F)(F)F)c1 | > 4 mM (inactive)
CN1CCC=C(C(=O)O)C1 | > 4 mM (inactive)
Cc1cc([N+](=O)[O-])cc[n+]1[O-] | > 4 mM (inactive)
CC(C)Oc1ccc(C2CC(=O)NNC2=O)cc1 (stereo not drawn) | > 4 mM (inactive)
CC(=O)Nc1cccc(NC(=O)c2ccco2)c1 | > 4 mM (inactive)
O=C(O)c1cnc2n(c1=O)CCS2 | > 4 mM (inactive)
Nc1cc(=O)[nH]c(SCC(=O)NCc2ccccc2)n1 | > 4 mM (inactive)
CC1CCC2(OC1)OC1CC3C4CCC5C[C@@H](O)CCC5(C)C4=CCC3(C)C1[C@@H]2C (stereo partly drawn) | > 4 mM (inactive)
CC(=O)Oc1c(C)cc(O)c2ccccc12 | > 4 mM (inactive)
COc1ccc(C(=O)/C=C2\NC(=S)NC2=O)cc1 | > 4 mM (inactive)
NC(=O)CSc1nc2ccccc2c(=O)[nH]1 | > 4 mM (inactive)
O=C(O)C1(S(=O)(=O)c2ccccc2)CC1 | > 4 mM (inactive)
Cc1nn2c(-c3ccncc3)nnc2c2ccccc12 | > 4 mM (inactive)
O=S(=O)(c1ccc(F)c(Cl)c1)N1CCCC1 | > 4 mM (inactive)
COc1ccc([C@H]2Oc3c(I)c(OC)cc(OC)c3C[C@@H]2O)cc1OC | > 4 mM (inactive)
NCc1c[nH]c2ccccc12 | > 4 mM (inactive)
O=C(Oc1ccc2c(c1)CCC2)N1CCOCC1 | > 4 mM (inactive)
